Measured values from patent US20090118375A1, “Optically active phthalamides” (priority 2004, published 2009).
One block for each compound: values may come before it.

Columns and labels:
[1] = log P by HPLC on reversed-phase column (EEC Directive 79/831 Annex V.A8); format: physicochemical; conditions: reversed-phase C18 HPLC column, pH 2.3, 43° C.
Description: The log P values given in the preparation examples and tables above are determined in accordance with EEC Directive 79/831 Annex V.A8 by HPLC (High Performance Liquid Chromatography) on a reversed-phase column (C 18). Temperature: 43° C.
In the acidic range, determination is carried out at pH 2.3 using the mobile phases 0.1% aqueous phosphoric acid and acetonitrile; linear gradient from 10% acetonitrile to 90% acetonitrile (in the tables marked with a)).
Calibration is carried out using unbranched alkan-2-ones (of 3 to 16 carbon atoms) with known lop P values (determination of the log P values by the retention times using linear interpolation between two successive alkanones).

[2] = test system: Lucilia cuprina 1st instar larvae; assay: Blowfly larval assay (Lucilia cuprina); format: in vivo; conditions: 100 ppm
Description: (§1) 10 mg active compound are dissolve in 0.5 ml dimethyl sulphoxide. Serial dilutions are made to obtain the desired rates.
Approximately 20 Lucilia cuprina 1st instar larvae are transferred into a test tube containing 1 cm^3 of minced horse meat and 0.5 ml aqueous dilution of test compound. After 48 hrs percentage of larval mortality are recorded.
100% efficacy=all larvae are killed 0% efficacy=normally developed larvae after 48 hrs

[3] = test system: Boophilus microplus (SP-resistant Parkhurst strain); assay: Boophilus microplus test (INJ), resistant cattle tick, injection method; format: in vivo; conditions: concentration of active compound 20 μM, injection into abdomen of adult satiated females
Description: Test with Resistant Monoxenic Cattle Tick/SP-Resistant Parkhurst Strain Injection Method
Boophilus microplus (INJ)
10 mg active compound are dissolve in 0.5 ml Dimethylsulfoxid. Serial dilutions are made to obtain the desired rates.
The test is carried out in 5 replications. 1 μl of the solutions is injected into the abdomen, and the animals are transferred to dishes and kept in a climate-controlled room. After 7 days, activity is checked by examination for deposition of fertile eggs. Eggs whose fertility is not externally visible are stored in glass tubes in a controlled-environment cabinet until the larvae have hatched after ca. 24 days. An activity of 100% denotes that none of the ticks has laid fertile eggs.

[4] = test system: Musca domestica; assay: Housefly assay (Musca domestica); format: in vivo; conditions: 100 ppm, adult flies
Description: as §1
Prior to the assay, a piece of kitchen sponge (ca. Ø 1.5 cm) is soaked with 0.8 ml of sugar solution and 0.2 ml of aqueous compound dilution and is placed into a container (4×4×2 cm). 10 adult Musca domestica flies (WHO/N strain) are anaesthetized by CO2 and also placed into the container. The container is closed with a perforated lid. […]
100% efficacy=all flies are killed 0% efficacy=no flies are killed

[5] = test system: Plutella xylostella; assay: Plutella test; format: in vivo; conditions: 20 ppm, cabbage leaves dipped
Description: (§2) To produce a suitable preparation of active compound, 1 part by weight of active compound is mixed with the stated amounts of solvent and emulsifier, and the concentrate is diluted with emulsifier-containing water to the desired concentration.
Cabbage leaves (Brassica oleracea) are treated by being dipped into the preparation of active compound of the desired concentration and are populated with caterpillars of the diamondback moth (Plutella xylostella) while the leaves are still moist.
(§3) After the desired period of time, the kill in % is determined. 100% means that all caterpillars have been killed; 0% means that none of the caterpillars have been killed.

[6] = test system: Spodoptera exigua; assay: Spodoptera exigua test; format: in vivo; conditions: 168 h, cabbage leaves dipped, after 7 d, read-out: Kill rate in % after 7 d
Description: as §2
Cabbage leaves (Brassica oleracea) are treated by being dipped into the preparation of active compound of the desired concentration and are populated with caterpillars of the army worm (Spodoptera exigua) while the leaves are still moist.
as §3

[7] = test system: Myzus persicae; assay: Myzus test (spray application); format: in vivo; conditions: topical, 120 h, spray on Chinese cabbage leaves, after 5 d, read-out: Kill rate in % after 5 d
Description: Myzus Test (Spray Application)
as §2
Chinese cabbage leaves (Brassica pekinensis), which are infested by the green peach aphid (Myzus persicae), are treated by being sprayed with the preparation of the active compound of the desired concentration.
(§4) After the specified period of time, the mortality in % is determined. 100% means that all the […] have been killed; 0% means that none of the […] have been killed.

[8] = test system: Tetranychus urticae; assay: Tetranychus test (OP-resistant/spray application); format: in vivo; conditions: 100 g/ha, spray on bean leaf slices
Description: Tetranychus test (OP-Resistant/Spray Application)
as §2
Bean leave slices (Phaseolus vulgaris), which are infested with all stages of the two-spotted spider mite (Tetranychus urticae), are treated by being sprayed with the preparation of the active compound of the desired concentration.
as §4

[9] = test system: Spodoptera frugiperda; assay: Spodoptera frugiperda test (spray application); format: in vivo; conditions: topical, 168 h, 20 g/ha, spray on maize leaf slices, after 7 d, read-out: Kill rate in % after 7 d
Description: Spodoptera frugiperda Test (Spray Application)
as §2
Maize leave slices (Zea mays) are treated by being sprayed with the preparation of the active compound of the desired concentration and are infested with caterpillars of the fall army worm (Spodoptera frugiperda) after the leaves have dried.
as §4

- chromatographic logP [1]: 2.74
SMILES: Cc1cc(C(F)(C(F)F)C(F)(F)F)ccc1N (stereo not drawn) [4-(1-Difluoromethyl-1,2,2,2-tetrafluoro-ethyl)-2-methyl-phenylamine]

- chromatographic logP [1]: 2.02
SMILES: Cc1cc(C(C(F)F)C(F)(F)F)ccc1N (stereo not drawn) [4-(1-Difluoromethyl-2,2,2-trifluoro-ethyl)-2-methyl-phenylamine]

- chromatographic logP [1]: 3.87
SMILES: CSC[C@H](C)N=C1OC(=O)c2cccc(I)c21 [4-Iodo-3-[(S)-1-methyl-2-methylsulfanyl-ethylimino]-3H-isobenzofuran-1-one]

SMILES: CCSC[C@H](C)NC(=O)c1c(I)cccc1C(=O)Nc1ccc(C(F)(C(F)(F)F)C(F)(F)Br)cc1C (stereo partly drawn) [Compound 1]
- Kill rate in % after 2 d [2]: 100%

SMILES: CCSC[C@H](C)NC(=O)c1c(I)cccc1C(=O)Nc1ccc(C(C(F)F)C(F)(F)F)cc1C (stereo partly drawn) [Compound 4]
- Kill rate in % after 7 d [3]: 100%
- Kill rate in % after 2 d [2]: 100%

- melting point: 105 °C
SMILES: CCSC[C@H](C)NC(=O)c1c(I)cccc1C(=O)Nc1ccc(C(F)(C(F)F)C(F)(F)F)cc1C (stereo partly drawn) [Compound 5]
- Kill rate in % after 4 d [4]: 100%
- Kill rate in % after 7 d [3]: 100%

- melting point: 184 °C
SMILES: CSC[C@H](C)NC(=O)c1c(I)cccc1C(=O)Nc1ccc(C(C(F)F)C(F)(F)F)cc1C (stereo partly drawn) [Compound 11]
- Kill rate in % after 7 d [5]: 100%

- melting point: 124 °C
SMILES: Cc1cc(C(F)(C(F)F)C(F)(F)F)ccc1NC(=O)c1cccc(I)c1C(=O)N[C@@H](C)CS(C)(=O)=O (stereo partly drawn) [Compound 18]
- Kill rate in % after 7 d [5]: 100%

- melting point: 144 °C
SMILES: CCSC[C@H](C)NC(=O)c1c(I)cccc1C(=O)Nc1ccc(C(C(F)F)C(F)(F)F)cc1F (stereo partly drawn) [Compound 21]
- Kill rate in % after 4 d [4]: 100%

- melting point: 165 °C
SMILES: CCSC[C@H](C)NC(=O)c1c(I)cccc1C(=O)Nc1ccc(C(C(F)F)C(F)(F)F)cc1Cl (stereo partly drawn) [Compound 23]
- Kill rate in % after 7 d [3]: 100%

- melting point: 160 °C
SMILES: CCSC[C@H](C)NC(=O)c1c(I)cccc1C(=O)Nc1ccc(C(C(F)F)C(F)(F)F)cc1Br (stereo partly drawn) [Compound 24]
- Kill rate in % after 7 d [3]: 100%

SMILES: CCS(=O)(=O)C[C@H](C)NC(=O)c1c(I)cccc1C(=O)Nc1ccc(C(F)(C(F)F)C(F)(F)F)cc1Cl (stereo partly drawn) [Compound 25]
- Kill rate in % after 2 d [2]: 90%

- melting point: 184 °C
SMILES: C[C@@H](CS(C)(=O)=O)NC(=O)c1c(I)cccc1C(=O)Nc1ccc(C(F)(C(F)F)C(F)(F)F)cc1Cl (stereo partly drawn) [Compound 27]
- pest or weed control at 20 ppm [6]: 100%

- melting point: 116 to 120 °C
SMILES: C[C@@H](CS(C)(=O)=O)NC(=O)c1c(I)cccc1C(=O)Nc1ccc(C(C(F)F)C(F)(F)F)cc1Cl (stereo partly drawn) [Compound 28]
- Kill rate in % after 4 d [4]: 100%

SMILES: C[C@@H](CS(C)(=O)=O)NC(=O)c1c(I)cccc1C(=O)Nc1ccc(C(C(F)F)C(F)(F)F)cc1Br (stereo partly drawn) [Compound 31]
- pest or weed control at 100 g/ha [7]: 100%
- Kill rate in % after 4 d [4]: 100%

SMILES: C[C@@H](CS(C)(=O)=O)NC(=O)c1c(I)cccc1C(=O)Nc1ccc(C(F)(C(F)F)C(F)(F)F)cc1F (stereo partly drawn) [Compound 32]
- Kill rate in % after 4 d [4]: 100%
- Kill rate in % after 2 d [2]: 100%

- melting point: 144 to 147 °C
SMILES: C[C@@H](CS(C)(=O)=O)NC(=O)c1c(I)cccc1C(=O)Nc1ccc(C(C(F)F)C(F)(F)F)cc1F (stereo partly drawn) [Compound 33]
- Kill rate in % after 4 d [4]: 100%
- Kill rate in % after 7 d [3]: 100%

- melting point: 134 °C
SMILES: CCS(=O)(=O)C[C@H](C)NC(=O)c1c(I)cccc1C(=O)Nc1ccc(C(F)(C(F)F)C(F)(F)F)cc1Br (stereo partly drawn) [Compound 34]
- pest or weed control at 20 ppm [6]: 100%

- melting point: 122 °C
SMILES: CCS(=O)(=O)C[C@H](C)NC(=O)c1c(I)cccc1C(=O)Nc1ccc(C(C(F)F)C(F)(F)F)cc1Br (stereo partly drawn) [Compound 35]
- Kill rate in % after 4 d [4]: 100%

SMILES: CCS(=O)(=O)C[C@H](C)NC(=O)c1c(I)cccc1C(=O)Nc1ccc(C(F)(C(F)F)C(F)(F)F)cc1F (stereo partly drawn) [Compound 36]
- Kill rate in % after 2 d [2]: 100%

SMILES: CCS(=O)(=O)C[C@H](C)NC(=O)c1c(I)cccc1C(=O)Nc1ccc(C(C(F)F)C(F)(F)F)cc1F (stereo partly drawn) [Compound 37]
- Kill rate in % after 2 d [2]: 100%

- melting point: 184 to 186 °C
SMILES: CSC[C@H](C)NC(=O)c1c(Cl)cccc1C(=O)Nc1ccc(C(F)(C(F)(F)F)C(F)(F)Br)cc1C (stereo partly drawn) [Compound 38]
- Kill rate in % after 7 d [5]: 100%

SMILES: CSC[C@H](C)NC(=O)c1c(Cl)cccc1C(=O)Nc1ccc(C(C(F)F)C(F)(F)F)cc1Cl (stereo partly drawn) [Compound 42]
- Kill rate in % after 5 d [8]: 80%

SMILES: Cc1cc(C(F)(C(F)F)C(F)(F)F)ccc1NC(=O)c1cccc(Cl)c1C(=O)N[C@@H](C)CS(C)(=O)=O (stereo partly drawn) [Compound 44]
- Kill rate in % after 5 d [8]: 80%
- Kill rate in % after 7 d [5]: 100%

- melting point: 180 °C
SMILES: C[C@@H](CS(C)(=O)=O)NC(=O)c1c(Cl)cccc1C(=O)Nc1ccc(C(F)(C(F)F)C(F)(F)F)cc1Cl (stereo partly drawn) [Compound 47]
- pest or weed control at 20 ppm [6]: 100%

- melting point: 100 °C
SMILES: CCSC[C@H](C)NC(=O)c1c(Br)cccc1C(=O)Nc1ccc(C(C(F)F)C(F)(F)F)cc1Cl (stereo partly drawn) [Compound 54]
- Kill rate in % after 7 d [5]: 100%

- melting point: 116 °C
SMILES: CCS(=O)(=O)C[C@H](C)NC(=O)c1c(Cl)cccc1C(=O)Nc1ccc(C(C(F)F)C(F)(F)F)cc1Cl (stereo partly drawn) [Compound 56]
- pest or weed control at 20 ppm [6]: 100%

- melting point: 121 °C
SMILES: CCS(=O)(=O)C[C@H](C)NC(=O)c1c(Br)cccc1C(=O)Nc1ccc(C(C(F)F)C(F)(F)F)cc1Cl (stereo partly drawn) [Compound 59]
- pest or weed control at 20 ppm [6]: 100%

- melting point: 138 to 142 °C
SMILES: CSC[C@H](C)NC(=O)c1c(Br)cccc1C(=O)Nc1ccc(C(F)(C(F)F)C(F)(F)F)cc1Br (stereo partly drawn) [Compound 67]
- Kill rate in % after 7 d [5]: 100%

SMILES: CCS(=O)(=O)C[C@H](C)NC(=O)c1c(Br)cccc1C(=O)Nc1ccc(C(F)(C(F)F)C(F)(F)F)cc1Br (stereo partly drawn) [Compound 69]
- pest or weed control at 20 g/ha [9]: 100%
- Kill rate in % after 2 d [2]: 100%
